Test results taken from publication PMC8784342, “Investigation of sugar binding kinetics of the E. coli sugar/H^+ symporter XylE using solid-supported membrane-based electrophysiology” (The Journal of Biological Chemistry, 2021).
Where “and” joins values, the source holds several entries; their conditions need not be identical. Identical values can stand only once.

Columns and labels:
wt FucP = molecular target: T1, wt FucP (Escherichia coli, UniProt P11551); assay: SSM-based electrophysiology, proteoliposomes with wt FucP; type: biochemical
T1 construct: made in house; host or cells: E. coli BL21 DE3
T1 sequence (P11551 1-438): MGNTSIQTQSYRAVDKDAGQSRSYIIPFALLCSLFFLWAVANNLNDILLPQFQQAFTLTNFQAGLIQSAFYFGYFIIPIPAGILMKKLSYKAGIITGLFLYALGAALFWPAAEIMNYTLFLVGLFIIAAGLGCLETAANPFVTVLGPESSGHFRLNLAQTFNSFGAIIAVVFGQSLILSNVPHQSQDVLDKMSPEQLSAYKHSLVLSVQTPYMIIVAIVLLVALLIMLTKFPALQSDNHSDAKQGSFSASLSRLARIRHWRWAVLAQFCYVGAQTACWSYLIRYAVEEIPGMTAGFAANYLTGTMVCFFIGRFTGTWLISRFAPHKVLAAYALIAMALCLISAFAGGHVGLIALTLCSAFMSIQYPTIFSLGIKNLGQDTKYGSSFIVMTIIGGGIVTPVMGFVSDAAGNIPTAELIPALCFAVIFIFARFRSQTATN
Experimental: (§1) Reconstitution of purified proteins (2–20 mg/ml) was carried out with E. coli phospholipids (Avanti Polar Lipids, E. coli polar lipid extract). Preformed liposomes (0.2–2 ml, 10 mg/ml) were dissolved in 1% (w/v) n-octyl-β-D-glucoside, and the protein suspension was mixed on ice to a concentration of 0.2 mg protein/mg lipid (LPR 5).
(§2) Wt XylE, wt FucP, and the mutant proteins were reconstituted using overnight incubation in 400 mg/ml BioBeads (SM-2 Adsorbent Media, Bio-Rad) at 4 °C. After reconstitution, the samples were diluted to 2.5 mg/ml lipid concentration, frozen in liquid nitrogen, and stored at −80 °C. For wt LacY and mutant proteins, this procedure was not successful. We, therefore, applied the previously established n-octyl-β-D-glucoside dilution method (1:100) ([69]).
(§3) SSM measurements were performed as described ([20], [23]). After thawing the sample and sonication in a water bath, 30 μl of proteoliposomes (2.5 mg/ml lipid at LPR 5) was allowed to adsorb for 1 to 2 h to an octadecanethiol/phosphatidylcholine hybrid bilayer on a gold surface (the sensor).
(§4) For measurements, a single solution exchange configuration ([23]) was employed that consisted in three phases of 0.5 s duration each: Flow of nonactivating solution (NA), activating solution (A), and nonactivating solution (NA). Only the activating solution contained the sugar. When pH dependence is determined, pH of NA and A solutions during one experiment are kept constant. Between experiments using different pH values, the sensor was incubated at the new pH for 3 min to equilibrate the intraliposomal pH.
(§5) Instruments with different time resolution were used as required. […] Currents were recorded throughout the entire time and amplified with a current amplifier set to a gain of […] and a rise time of 10 ms (low time-resolution set up) or 3 ms (high time-resolution set up).
(§6) All NA solutions were buffered in 100 mM KPi at a given pH value. NA solutions used with LacY contained 1 mM DTT in addition. A solutions were made from NA solutions by adding the respective sugar at a given concentration to induce the symport reaction. Sugar concentration jumps initiated sugar-proton symport, and charge transfer was measured by capacitive coupling. Therefore, only transient currents were recorded.
(§7) Each dataset represented with error bars was generated by performing the same experiment on multiple sensors (n ≥ 3). Error bars represent standard deviations of the average value. When peak currents are averaged across sensors, datasets are normalized before averaging. When the protein catalyzes transport and PSS currents are negligible, the peak current of the transient represents a good approximation of the current generated by the steady-state symport activity of the transporter. In most cases, peak currents have been used to derive kinetic and thermodynamic parameters according to the equations given in Figure 2 (KM, Imax ∼ Vmax, Hill coefficient n), Figure 4 (KD and rate constants for sugar binding kon and release koff), and Figure 6 (pKa for proton binding and pKb for proton release). Reconstruction of transporter currents for analysis of biphasic currents has been performed as described previously ([70]). This is required when transport and PSS currents are observed at the same time.

XylE [1] = settings: uptake and competition-uptake assays; cited from earlier work
XylE [2] = molecular target: XylE; set-up: method as in PMID 23075985; settings: read-out: KD, isothermal titration calorimetry; cited from earlier work
Q175I/L297F XylE = molecular target: T2, Q175I/L297F XylE (Escherichia coli, UniProt P0AGF4, L297F/Q175I); assay: biochemical
T2 construct: made in house; host or cells: E. coli BL21 DE3
Experimental: as §1
as §2, with “For wt LacY and mutant proteins, this procedure was not successful.” left out
as §3, §4, §5, §6, §7

wt XylE = wt XylE (Escherichia coli, UniProt P0AGF4); assay: biochemical; set-up: made in house; host or cells: E. coli BL21 DE3
Experimental: as §1, §2, §3, §4, §5, §6, §7

D46N FucP = molecular target: T3, D46N FucP (Escherichia coli, UniProt P11551, D46N); assay: SSM-based electrophysiology, transport-deficient mutant D46N FucP (PSS currents); type: biochemical
T3 construct: made in house; host or cells: E. coli BL21 DE3
Experimental: as §1, §2, §3, §4, §5, §6, §7

D27N XylE = molecular target: T4, D27N XylE (Escherichia coli, UniProt P0AGF4, D27N); assay: SSM-based electrophysiology, transport-deficient mutant D27N XylE (PSS currents, electrogenic binding); type: biochemical
T4 construct: made in house; host or cells: E. coli BL21 DE3
Experimental: as §1, §2, §3, §4, §5, §6, §7

[3] = EC50,1, double Michaelis–Menten fit, pH 7.6, peak currents
[4] = EC50,2, double Michaelis–Menten fit, pH 7.6, peak currents
[5] = pH 7.6, peak currents, Hill equation
[6] = reconstructed transporter currents, alkaline range, double titration

T2 sequence (P0AGF4 whole entry Q175I/L297F): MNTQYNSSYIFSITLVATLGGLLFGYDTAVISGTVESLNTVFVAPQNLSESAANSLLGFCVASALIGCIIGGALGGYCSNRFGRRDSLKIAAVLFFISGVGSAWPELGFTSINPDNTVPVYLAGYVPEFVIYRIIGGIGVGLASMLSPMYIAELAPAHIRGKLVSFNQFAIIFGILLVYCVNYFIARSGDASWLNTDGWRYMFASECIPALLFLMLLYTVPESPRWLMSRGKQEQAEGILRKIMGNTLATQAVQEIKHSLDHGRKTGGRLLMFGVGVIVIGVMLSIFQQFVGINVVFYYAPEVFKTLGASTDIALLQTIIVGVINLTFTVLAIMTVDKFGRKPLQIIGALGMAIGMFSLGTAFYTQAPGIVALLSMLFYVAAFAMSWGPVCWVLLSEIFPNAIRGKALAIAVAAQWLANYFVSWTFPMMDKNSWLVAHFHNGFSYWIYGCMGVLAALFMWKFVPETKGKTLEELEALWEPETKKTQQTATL
T4 sequence (P0AGF4 whole entry D27N): as the sequence (P0AGF4 whole entry Q175I/L297F) above, with D27N, I175Q, F297L counted along it
Sequence of wt XylE (P0AGF4 whole entry): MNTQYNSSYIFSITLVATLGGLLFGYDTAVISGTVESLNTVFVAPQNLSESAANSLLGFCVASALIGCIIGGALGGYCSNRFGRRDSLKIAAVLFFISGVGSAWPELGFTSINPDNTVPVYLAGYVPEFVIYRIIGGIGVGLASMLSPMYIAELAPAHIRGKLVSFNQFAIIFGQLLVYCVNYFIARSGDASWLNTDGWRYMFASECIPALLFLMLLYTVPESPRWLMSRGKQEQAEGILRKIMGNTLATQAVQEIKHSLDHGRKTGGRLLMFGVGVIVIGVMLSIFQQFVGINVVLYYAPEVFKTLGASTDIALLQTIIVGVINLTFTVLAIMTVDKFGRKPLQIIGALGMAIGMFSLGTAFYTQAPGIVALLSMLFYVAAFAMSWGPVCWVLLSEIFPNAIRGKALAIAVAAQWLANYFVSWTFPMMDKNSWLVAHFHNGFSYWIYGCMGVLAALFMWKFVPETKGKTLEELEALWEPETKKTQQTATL
T3 sequence (P11551 whole entry D46N): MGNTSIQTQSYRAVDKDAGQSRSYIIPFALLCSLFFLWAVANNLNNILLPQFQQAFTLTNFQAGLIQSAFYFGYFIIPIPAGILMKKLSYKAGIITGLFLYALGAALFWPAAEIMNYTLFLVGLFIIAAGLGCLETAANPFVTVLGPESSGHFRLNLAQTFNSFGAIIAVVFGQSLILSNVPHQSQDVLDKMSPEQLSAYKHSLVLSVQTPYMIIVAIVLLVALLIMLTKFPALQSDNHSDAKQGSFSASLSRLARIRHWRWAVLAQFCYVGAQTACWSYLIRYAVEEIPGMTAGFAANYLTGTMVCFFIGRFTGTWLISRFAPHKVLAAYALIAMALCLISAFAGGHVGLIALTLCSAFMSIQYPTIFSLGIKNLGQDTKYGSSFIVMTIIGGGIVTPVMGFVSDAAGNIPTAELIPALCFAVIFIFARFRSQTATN

OC1OC[C@@H](O)[C@@H](O)[C@@H]1O (stereo partly drawn) [D-arabinose]
EC50 (wt FucP; [3]): 820 ± 530 µM
EC50 (wt FucP; [4]): 38000 ± 9000 µM
Imax in percent of Imax of the main substrate (L-fucose) (wt FucP; pH 7.6): 132 ± 13%
n (Hill coefficient) (wt FucP; [5]): 0.62 ± 0.04

OC[C@H]1OC(O)[C@H](O)[C@@H](O)[C@@H]1O (stereo partly drawn) [D-glucose]
transport of radioactively labeled sugar (XylE [1]): not transported
Kd (XylE [2]): 770 µM
IPeak (pA) fast component (Q175I/L297F XylE; pH 7.6, saturating substrate): 240 pA and 240 ± 40 pA
pKa (Q175I/L297F XylE; reconstructed transporter currents, acidic range): 4.6 ± 0.1
pKb1 (Q175I/L297F XylE; [6]): ~7.5 and 7.3 ± 0.1
pKb2 (Q175I/L297F XylE; [6]): 9.8 ± 0.2
Kb (wt XylE): 0.0398 nM
EC50 (wt XylE; [3]): 160 ± 10 µM
EC50 (wt XylE; [4]): 6500 ± 900 µM
EC50 (wt XylE; EC50, Hill fit, pH 7.6, peak currents, Hill equation): 920 ± 120 µM
EC50 (wt XylE; apparent EC50 (half saturation constant, Michaelis–Menten equation; KM column), pH 7.6, D-glucose-induced slow PSS current, not transport): 380 µM and 400 µM
Q (pC) wt, PSS transferred charge (wt XylE; pH 3.0, 30 mM substrate): 2.5 ± 1 (pH 3.0) pC
slow peak current amplitude compared with D-xylose-induced currents (wt XylE; pH 7.0): 26%
Imax in percent of Imax of the main substrate (D-xylose) (wt XylE; pH 7.6): 26% and 26 ± 5%
Imax (nA) slow component (wt XylE; pH 7.6, hyperbolic fit of peak current): 0.47 ± 0.1 nA
n (Hill coefficient) (wt XylE; [5]): 0.57 ± 0.03
IPeak (pA) fast component (wt XylE; pH 7.6, saturating substrate, transport current given as upper limit): <470 pA
pKa (wt XylE; pH-dependent peak currents, acidic range): 4.7 ± 0.1
induction of PSS currents (D46N FucP): do not generate PSS currents
Kd (D27N XylE; KD (mM) mut, pH 7.6, hyperbolic fit of peak currents, in Table 3 headed EC50): 1.9 ± 0.35 mM
Kd (D27N XylE; KD from fit of concentration-dependent kobs, pH 7.6): 0.67 ± 0.1 mM
Imax (nA) slow component (D27N XylE; pH 7.6): <0.05 nA
Q (pC) Mut, transferred charge (D27N XylE; pH 7.6, 30 mM substrate): 1.1 ± 0.3 (pH 7.6) pC
IPeak (pA) fast component (D27N XylE; pH 7.6, saturating substrate): 60 pA and 60 ± 25 pA
kobs (s^−1) mut (D27N XylE; saturating substrate (30 mM), kobs = 1/τ, monoexponential fit, limited by time resolution): 300 ± 40 s⁻¹

OC[C@@H]1OC(O)[C@H](O)[C@@H](O)[C@@H]1O (stereo partly drawn) [L-idose]
induction of currents (substrate identification) (wt XylE; pH 7.0): generated signals identifying them as substrates

6-Deoxy-D-glucose
induction of currents (substrate identification) (wt XylE; pH 7.0): generated signals identifying them as substrates
Imax in percent of Imax of the main substrate (D-xylose) (wt XylE; pH 7.6): 35 ± 5%
Km (wt XylE; pH 7.6, minor substrate, peak currents, low time-resolution set up, read-out: KM (mM) Michaelis–Menten equation): 0.2 ± 0.05 mM

OC[C@H]1OC(O)[C@@H](O)[C@H](O)[C@@H]1O (stereo partly drawn) [D-altrose]
induction of currents (substrate identification) (wt FucP; pH 8.0): generated signals identifying them as substrates
